Measurements: US12258328B2, “6-membered heteroaryl-containing aminopyridine compounds as EGFR inhibitors” (YUHAN CORPORATION, priority 2021, dated 2025)
pIC50: −log10 of the molar value. Read-outs that look alike come from different tables or passages of the source.

Legend:
EGFR wildtype = EGFR wildtype (Homo sapiens, UniProt P00533); experiment: Biochemical EGFR kinase assay (Lance Ultra TR-FRET), wildtype
Procedure, shortened: (§1)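 In this biochemical assay, phosphorylation after a one-hour room-temperature reaction was detected with europium-labelled anti-phosphopeptide antibody at 2 nM final concentration.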

EGFR del19/T790M/C797S = EGFR del19/T790M/C797S (Homo sapiens, UniProt P00533, C797S/DEL746-750/T790M); experiment: Biochemical EGFR kinase assay (Lance Ultra TR-FRET), triple mutant del19/T790M/C797S
EGFR del19/T790M/C797S, sequence (P00533 with tags, fused parts or gaps DEL746-750/T790M/C797S): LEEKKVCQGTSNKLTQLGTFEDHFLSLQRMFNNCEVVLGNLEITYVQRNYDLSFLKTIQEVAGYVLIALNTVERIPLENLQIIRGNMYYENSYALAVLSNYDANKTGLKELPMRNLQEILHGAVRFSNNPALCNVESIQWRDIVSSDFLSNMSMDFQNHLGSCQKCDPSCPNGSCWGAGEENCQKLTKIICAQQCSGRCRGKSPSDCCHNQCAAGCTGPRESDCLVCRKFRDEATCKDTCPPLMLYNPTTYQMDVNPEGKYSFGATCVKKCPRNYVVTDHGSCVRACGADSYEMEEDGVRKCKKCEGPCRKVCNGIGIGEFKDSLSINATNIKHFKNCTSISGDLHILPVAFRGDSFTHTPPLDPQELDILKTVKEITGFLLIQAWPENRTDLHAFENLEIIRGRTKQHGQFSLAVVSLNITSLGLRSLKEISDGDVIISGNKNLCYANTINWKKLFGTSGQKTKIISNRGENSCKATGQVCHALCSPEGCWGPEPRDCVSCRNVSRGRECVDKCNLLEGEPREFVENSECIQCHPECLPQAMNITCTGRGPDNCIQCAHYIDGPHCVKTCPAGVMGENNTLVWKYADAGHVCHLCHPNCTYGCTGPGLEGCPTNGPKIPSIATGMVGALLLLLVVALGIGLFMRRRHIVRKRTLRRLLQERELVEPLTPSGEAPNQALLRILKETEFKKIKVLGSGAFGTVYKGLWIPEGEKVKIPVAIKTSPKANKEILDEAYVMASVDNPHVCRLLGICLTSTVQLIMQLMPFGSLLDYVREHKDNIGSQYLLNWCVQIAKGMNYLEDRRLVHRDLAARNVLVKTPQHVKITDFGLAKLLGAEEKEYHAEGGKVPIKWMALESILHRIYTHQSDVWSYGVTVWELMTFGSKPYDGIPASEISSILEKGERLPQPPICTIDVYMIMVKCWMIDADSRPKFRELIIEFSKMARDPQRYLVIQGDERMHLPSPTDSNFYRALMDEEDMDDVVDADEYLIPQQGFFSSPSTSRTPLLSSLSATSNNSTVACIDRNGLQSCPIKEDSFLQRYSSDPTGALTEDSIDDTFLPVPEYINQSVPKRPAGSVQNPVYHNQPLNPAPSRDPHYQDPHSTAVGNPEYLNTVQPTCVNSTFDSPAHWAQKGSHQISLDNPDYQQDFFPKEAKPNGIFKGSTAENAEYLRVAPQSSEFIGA
Procedure, shortened: as §1

EGFR del19/C797S = EGFR del19/C797S (Homo sapiens, UniProt P00533, C797S/DEL746-750); experiment: Biochemical EGFR kinase assay (Lance Ultra TR-FRET), double mutant del19/C797S
EGFR del19/C797S, sequence (P00533 with tags, fused parts or gaps DEL746-750/C797S): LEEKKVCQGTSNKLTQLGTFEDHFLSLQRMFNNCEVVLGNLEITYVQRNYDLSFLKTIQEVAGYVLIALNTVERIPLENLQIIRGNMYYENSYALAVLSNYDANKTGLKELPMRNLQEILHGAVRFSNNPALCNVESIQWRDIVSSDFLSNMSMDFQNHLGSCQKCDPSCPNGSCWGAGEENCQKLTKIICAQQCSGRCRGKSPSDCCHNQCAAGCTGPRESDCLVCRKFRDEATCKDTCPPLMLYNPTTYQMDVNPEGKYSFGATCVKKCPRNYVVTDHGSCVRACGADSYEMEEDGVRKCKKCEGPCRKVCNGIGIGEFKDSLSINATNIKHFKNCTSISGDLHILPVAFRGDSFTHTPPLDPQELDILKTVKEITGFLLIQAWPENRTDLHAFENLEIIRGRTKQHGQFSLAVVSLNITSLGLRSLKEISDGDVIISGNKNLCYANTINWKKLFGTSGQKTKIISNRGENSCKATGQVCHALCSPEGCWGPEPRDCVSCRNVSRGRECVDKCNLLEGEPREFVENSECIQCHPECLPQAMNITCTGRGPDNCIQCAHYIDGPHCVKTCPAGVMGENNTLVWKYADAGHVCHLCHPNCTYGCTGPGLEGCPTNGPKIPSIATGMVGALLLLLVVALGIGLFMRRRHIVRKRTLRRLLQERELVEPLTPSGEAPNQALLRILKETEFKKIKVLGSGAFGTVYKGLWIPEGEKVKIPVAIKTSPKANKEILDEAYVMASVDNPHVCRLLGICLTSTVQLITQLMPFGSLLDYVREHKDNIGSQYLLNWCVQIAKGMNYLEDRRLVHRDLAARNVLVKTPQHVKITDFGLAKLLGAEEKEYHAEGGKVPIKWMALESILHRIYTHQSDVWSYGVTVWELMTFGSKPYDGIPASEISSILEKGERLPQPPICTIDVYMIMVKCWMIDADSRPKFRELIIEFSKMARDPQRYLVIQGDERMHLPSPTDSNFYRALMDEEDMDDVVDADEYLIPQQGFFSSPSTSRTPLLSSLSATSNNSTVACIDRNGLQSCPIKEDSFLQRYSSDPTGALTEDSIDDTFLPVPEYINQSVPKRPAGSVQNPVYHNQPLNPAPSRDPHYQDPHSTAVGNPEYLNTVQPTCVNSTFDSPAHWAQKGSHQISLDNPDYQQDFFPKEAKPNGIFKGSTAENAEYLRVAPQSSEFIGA
Procedure, shortened: as §1

EGFR L858R/C797S = EGFR L858R/C797S (Homo sapiens, UniProt P00533, C797S/L858R); experiment: Biochemical EGFR kinase assay (Lance Ultra TR-FRET), double mutant L858R/C797S
Procedure, shortened: as §1

EGFR L858R/T790M/C797S = EGFR L858R/T790M/C797S (Homo sapiens, UniProt P00533, C797S/L858R/T790M); experiment: Biochemical EGFR kinase assay (Lance Ultra TR-FRET), triple mutant L858R/T790M/C797S
EGFR L858R/T790M/C797S, sequence (P00533 25-1210 T790M/C797S/L858R): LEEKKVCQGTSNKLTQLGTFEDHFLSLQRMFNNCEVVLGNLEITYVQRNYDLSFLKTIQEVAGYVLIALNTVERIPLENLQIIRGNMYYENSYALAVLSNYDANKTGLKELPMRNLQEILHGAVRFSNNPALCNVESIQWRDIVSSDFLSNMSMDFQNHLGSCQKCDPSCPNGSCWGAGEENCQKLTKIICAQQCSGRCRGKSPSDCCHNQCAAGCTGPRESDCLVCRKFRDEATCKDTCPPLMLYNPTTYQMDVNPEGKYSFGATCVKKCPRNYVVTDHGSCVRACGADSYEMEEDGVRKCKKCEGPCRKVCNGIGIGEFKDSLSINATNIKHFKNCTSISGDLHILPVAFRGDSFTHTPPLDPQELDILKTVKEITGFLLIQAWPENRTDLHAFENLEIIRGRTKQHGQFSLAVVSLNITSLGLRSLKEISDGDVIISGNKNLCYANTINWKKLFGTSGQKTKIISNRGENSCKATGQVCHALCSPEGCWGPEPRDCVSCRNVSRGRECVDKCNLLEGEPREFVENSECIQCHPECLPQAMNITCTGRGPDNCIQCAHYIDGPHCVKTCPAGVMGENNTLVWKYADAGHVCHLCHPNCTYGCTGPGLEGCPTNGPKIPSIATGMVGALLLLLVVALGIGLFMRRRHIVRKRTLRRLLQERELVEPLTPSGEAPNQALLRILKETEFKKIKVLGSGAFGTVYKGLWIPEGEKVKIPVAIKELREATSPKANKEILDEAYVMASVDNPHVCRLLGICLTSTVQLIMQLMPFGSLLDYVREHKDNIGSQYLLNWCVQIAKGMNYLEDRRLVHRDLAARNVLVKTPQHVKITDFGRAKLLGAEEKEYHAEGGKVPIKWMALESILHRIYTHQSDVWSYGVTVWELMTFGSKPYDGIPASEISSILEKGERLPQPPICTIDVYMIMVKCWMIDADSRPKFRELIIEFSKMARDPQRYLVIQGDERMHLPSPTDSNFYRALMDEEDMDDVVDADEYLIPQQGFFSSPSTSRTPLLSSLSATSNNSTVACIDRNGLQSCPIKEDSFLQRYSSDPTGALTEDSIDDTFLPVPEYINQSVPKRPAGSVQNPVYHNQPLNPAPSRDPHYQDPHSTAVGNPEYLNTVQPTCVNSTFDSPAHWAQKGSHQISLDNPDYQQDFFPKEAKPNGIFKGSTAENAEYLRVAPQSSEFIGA
Procedure, shortened: as §1

[1] = ATP at Km, read-out: IC50 WT, Km ATP
[2] = ATP at Km, read-out: IC50 del19/T790M/C797S, Km ATP
[3] = ATP at Km, read-out: IC50 del19/C797S, Km ATP
[4] = ATP at Km, read-out: IC50 L858R/C797S, Km ATP
[5] = ATP at Km, read-out: IC50 L858R/T790M/C797S, Km ATP
[6] = IC50 L858R/T790M/C797S, 100 μM ATP
[7] = Km ATP, read-out: IC50 WT (nM) Km ATP
[8] = Km ATP, read-out: IC50 del19/T790M/C797S (nM) Km ATP
[9] = Km ATP, read-out: IC50 del19/C797S (nM) Km ATP
[10] = Km ATP, read-out: IC50 L858R/C797S (nM) Km ATP
[11] = Km ATP, read-out: IC50 L858R/T790M/C797S (nM) Km ATP
[12] = IC50 del19/T790M/C797S, 100 μM ATP
[13] = IC50 WT (nM) 100 μM ATP, 100 μM ATP
[14] = IC50 del19/T790M/C797S (nM) 100 μM ATP, 100 μM ATP
[15] = IC50 del19/C797S (nM) 100 μM ATP, 100 μM ATP
[16] = IC50 L858R/C797S (nM) 100 μM ATP, 100 μM ATP
[17] = IC50 L858R/T790M/C797S (nM) 100 μM ATP, 100 μM ATP

EGFR wildtype, sequence (P00533 25-1210): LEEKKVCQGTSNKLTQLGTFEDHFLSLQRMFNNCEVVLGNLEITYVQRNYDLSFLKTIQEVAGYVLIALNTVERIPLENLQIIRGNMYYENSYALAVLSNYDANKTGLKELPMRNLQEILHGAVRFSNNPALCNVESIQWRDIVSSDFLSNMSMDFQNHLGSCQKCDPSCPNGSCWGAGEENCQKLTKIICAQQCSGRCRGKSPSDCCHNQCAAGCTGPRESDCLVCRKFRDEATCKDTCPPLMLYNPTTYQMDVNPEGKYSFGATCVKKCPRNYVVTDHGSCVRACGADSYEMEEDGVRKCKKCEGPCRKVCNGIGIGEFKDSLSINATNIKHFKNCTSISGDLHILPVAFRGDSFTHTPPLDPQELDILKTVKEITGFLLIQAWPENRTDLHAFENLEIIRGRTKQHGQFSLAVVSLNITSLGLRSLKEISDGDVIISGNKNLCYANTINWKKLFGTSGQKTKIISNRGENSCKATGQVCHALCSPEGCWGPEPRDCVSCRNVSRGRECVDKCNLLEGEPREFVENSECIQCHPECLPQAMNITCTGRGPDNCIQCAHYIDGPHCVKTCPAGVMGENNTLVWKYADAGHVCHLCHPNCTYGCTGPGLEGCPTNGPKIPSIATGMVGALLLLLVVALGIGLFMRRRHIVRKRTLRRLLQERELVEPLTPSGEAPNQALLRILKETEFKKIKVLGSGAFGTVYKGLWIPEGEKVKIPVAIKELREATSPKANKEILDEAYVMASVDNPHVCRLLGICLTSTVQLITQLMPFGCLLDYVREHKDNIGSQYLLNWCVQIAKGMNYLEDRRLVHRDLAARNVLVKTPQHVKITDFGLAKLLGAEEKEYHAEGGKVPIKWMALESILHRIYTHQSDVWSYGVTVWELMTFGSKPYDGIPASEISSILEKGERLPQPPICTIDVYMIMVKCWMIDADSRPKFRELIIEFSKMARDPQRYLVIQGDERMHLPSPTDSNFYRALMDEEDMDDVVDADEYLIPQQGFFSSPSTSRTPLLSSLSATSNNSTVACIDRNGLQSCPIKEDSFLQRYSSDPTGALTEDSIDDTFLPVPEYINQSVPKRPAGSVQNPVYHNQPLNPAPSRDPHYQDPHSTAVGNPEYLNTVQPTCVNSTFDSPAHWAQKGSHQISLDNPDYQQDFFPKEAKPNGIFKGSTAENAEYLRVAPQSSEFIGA

Compound | pIC50 (EGFR wildtype; [1]) | pIC50 (EGFR wildtype; IC50 WT, 100 μM ATP) | pIC50 (EGFR del19/T790M/C797S; [2]) | pIC50 (EGFR del19/C797S; [3]) | pIC50 (EGFR L858R/C797S; [4]) | pIC50 (EGFR L858R/C797S; IC50 L858R/C797S, 100 μM ATP) | pIC50 (EGFR L858R/T790M/C797S; [5]) | pIC50 (EGFR L858R/T790M/C797S; [6]) | pIC50 (EGFR del19/T790M/C797S; [12]) | pIC50 (EGFR del19/C797S; IC50 del19/C797S, 100 μM ATP) | other results
CN1CCC(Oc2ccc(-c3cnc(Nc4ccnc(-c5cnn(S(=O)(=O)C6CC6)c5)n4)cc3N[C@H]3CCC[C@H](CO)C3)nc2)CC1 [Example 253, ((1S,3S)-3-((6′-((2-(1-(Cyclopropylsulfonyl)-1H-pyrazol-4-yl)pyrimidin-4-yl)amino)-5-((1-methylpiperidin-4-yl)oxy)-[2,3′-bipyridin]-4′-yl)amino)cyclohexyl)methanol] | 9.00 | – | 9.15 | 9.40 | 9.70 | – | 9.40 | – | – | – | –
C[C@]1(O)CC[C@@H](Nc2cc(Nc3ccnc(-c4cnn(S(=O)(=O)C5CC5)c4)n3)ncc2-c2cc(OC(F)F)ccn2)CC1 [Example 331, (1s,4s)-4-((6′-((2-(1-(Cyclopropylsulfonyl)-1H-pyrazol-4-yl)pyrimidin-4-yl)amino)-4-(difluoromethoxy)-[2,3′-bipyridin]-4′-yl)amino)-1-methylcyclohexan-1-ol] | – | – | – | – | – | – | – | – | – | – | IC50 (EGFR wildtype; [7]): 17.4 nM; IC50 (EGFR del19/T790M/C797S; [8]): 1.9 nM; IC50 (EGFR del19/C797S; [9]): 3.5 nM; IC50 (EGFR L858R/C797S; [10]): 2.4 nM; IC50 (EGFR L858R/T790M/C797S; [11]): 0.7 nM
CN(C)C[C@H]1CC[C@@H](Nc2cc(Nc3ccnc(-c4cnn(S(=O)(=O)C5CC5)c4)n3)ncc2-c2ccc(N3CCC(F)(F)CC3)nn2)CC1 [Example 73, N^2-(2-(1-(Cyclopropylsulfonyl)-1H-pyrazol-4-yl)pyrimidin-4-yl)-5-(6-(4,4-difluoropiperidin-1-yl)pyridazin-3-yl)-N^4-((1s,4s)-4-((dimethylamino)methyl)cyclohexyl)pyridine-2,4-diamine] | – | – | – | – | – | – | – | – | – | – | IC50 (EGFR wildtype; [13]): 562 nM; IC50 (EGFR wildtype; [7]): 2.2 nM; IC50 (EGFR del19/T790M/C797S; [14]): 0.7 nM; IC50 (EGFR del19/T790M/C797S; [8]): 0.4 nM; IC50 (EGFR del19/C797S; [15]): 0.5 nM; IC50 (EGFR del19/C797S; [9]): 0.4 nM; IC50 (EGFR L858R/C797S; [16]): 16.3 nM; IC50 (EGFR L858R/T790M/C797S; [17]): 0.5 nM; IC50 (EGFR L858R/T790M/C797S; [11]): 0.2 nM
C[C@]1(O)CC[C@@H](Nc2cc(Nc3ccnc(-c4cnn(S(=O)(=O)C5CC5)c4)n3)ncc2-c2cc(NCCCO)ccn2)CC1 [Example 282, (1s,4s)-4-((6′-((2-(1-(Cyclopropylsulfonyl)-1H-pyrazol-4-yl)pyrimidin-4-yl)amino)-4-((3-hydroxypropyl)amino)-[2,3′-bipyridin]-4′-yl)amino)-1-methylcyclohexan-1-ol] | – | 5.40 | – | – | – | 8.15 | – | 9.40 | 9.70 | 8.85 | –
CN(C)C[C@H]1CC[C@@H](Nc2cc(Nc3ccnc(-c4cnn(S(=O)(=O)C5CC5)c4)n3)ncc2-c2cc(C(F)F)ccn2)CC1 [Example 79, N^6′-(2-(1-(Cyclopropylsulfonyl)-1H-pyrazol-4-yl)pyrimidin-4-yl)-4-(difluoromethyl)-N^4′-((1s,4s)-4-((dimethylamino)methyl)cyclohexyl)-[2,3′-bipyridine]-4′,6′-diamine] | – | – | – | – | – | – | – | – | – | – | IC50 (EGFR wildtype; [13]): 450 nM; IC50 (EGFR wildtype; [7]): 1.4 nM; IC50 (EGFR del19/T790M/C797S; [14]): 0.5 nM; IC50 (EGFR del19/T790M/C797S; [8]): 0.8 nM; IC50 (EGFR del19/C797S; [15]): 0.6 nM; IC50 (EGFR del19/C797S; [9]): 0.4 nM; IC50 (EGFR L858R/C797S; [16]): 4.7 nM; IC50 (EGFR L858R/C797S; [10]): 0.7 nM; IC50 (EGFR L858R/T790M/C797S; [17]): 0.5 nM; IC50 (EGFR L858R/T790M/C797S; [11]): 0.3 nM
CC(C)(O)[C@H]1CC[C@@H](Nc2cc(Nc3ccnc(-c4cnn(S(=O)(=O)C5CC5)c4)n3)ncc2-c2ccc(N3CCOCC3)cn2)CC1 [Example 45, 2-((1s,4s)-4-((6′-((2-(1-(Cyclopropylsulfonyl)-1H-pyrazol-4-yl)pyrimidin-4-yl)amino)-5-morpholino-[2,3′-bipyridin]-4′-yl)amino)cyclohexyl)propan-2-ol] | – | – | – | – | – | – | – | – | – | – | IC50 (EGFR wildtype; [13]): 602 nM; IC50 (EGFR del19/T790M/C797S; [14]): 1.7 nM; IC50 (EGFR del19/C797S; [15]): 1.7 nM; IC50 (EGFR L858R/C797S; [16]): 4.2 nM; IC50 (EGFR L858R/T790M/C797S; [17]): 2.6 nM
O=S(=O)(C1CC1)n1cc(-c2nccc(Nc3cc(NC4CCC(F)CC4)c(-c4cnc(OC5CCOC5)cn4)cn3)n2)cn1 (stereo not drawn) [Example 152, N^2-(2-(1-(Cyclopropylsulfonyl)-1H-pyrazol-4-yl)pyrimidin-4-yl)-N^4-((1s,4s)-4-fluorocyclohexyl)-5-(5-((tetrahydrofuran-3-yl)oxy)pyrazin-2-yl)pyridine-2,4-diamine] | < 5.00 | – | 9.30 | 6.67 | 7.88 | – | 10.00 | – | – | – | –
O=S(=O)(C1CC1)n1cc(-c2nccc(Nc3cc(N[C@H]4CC[C@@H](NCCF)CC4)c(-c4cccc(F)n4)cn3)n2)cn1 [Example 273, N^6′-(2-(1-(Cyclopropylsulfonyl)-1H-pyrazol-4-yl)pyrimidin-4-yl)-6-fluoro-N^4′-((1s,4s)-4-((2-fluoroethyl)amino)cyclohexyl)-[2,3′-bipyridine]-4′,6′-diamine] | – | 5.65 | – | – | – | 8.07 | – | 9.52 | 9.70 | 9.00 | –
CN1CCC(Oc2ccc(-c3cnc(Nc4ccnc(-c5cnn(S(=O)(=O)C6CC6)c5)n4)cc3NC3CCC(F)CC3)nc2)CC1 (stereo not drawn) [Example 254, N^6′-(2-(1-(Cyclopropylsulfonyl)-1H-pyrazol-4-yl)pyrimidin-4-yl)-N^4′-(4-fluorocyclohexyl)-5-((1-methylpiperidin-4-yl)oxy)-[2,3′-bipyridine]-4′,6′-diamine] | 9.15 | – | 10.40 | 10.00 | 9.40 | – | 10.70 | – | – | – | –
COc1c(F)ccnc1-c1cnc(Nc2ccnc(-c3cnn(S(=O)(=O)C4CC4)c3)n2)cc1N[C@H]1CC[C@@](C)(O)CC1 [Example 335, (1s,4s)-4-((6′-((2-(1-(Cyclopropylsulfonyl)-1H-pyrazol-4-yl)pyrimidin-4-yl)amino)-4-fluoro-3-methoxy-[2,3′-bipyridin]-4′-yl)amino)-1-methylcyclohexan-1-ol] | – | – | – | – | – | – | – | – | – | – | IC50 (EGFR wildtype; [7]): 248 nM; IC50 (EGFR del19/T790M/C797S; [8]): 5.8 nM; IC50 (EGFR del19/C797S; [9]): 1840 nM; IC50 (EGFR L858R/C797S; [10]): 1780 nM; IC50 (EGFR L858R/T790M/C797S; [11]): 2.6 nM

The next lines start with results.

pIC50 (EGFR wildtype; [1]) | pIC50 (EGFR wildtype; IC50 WT, 100 μM ATP) | pIC50 (EGFR del19/T790M/C797S; [2]) | pIC50 (EGFR del19/C797S; [3]) | pIC50 (EGFR L858R/C797S; [4]) | pIC50 (EGFR L858R/C797S; IC50 L858R/C797S, 100 μM ATP) | pIC50 (EGFR L858R/T790M/C797S; [5]) | pIC50 (EGFR L858R/T790M/C797S; [6]) | pIC50 (EGFR del19/T790M/C797S; [12]) | pIC50 (EGFR del19/C797S; IC50 del19/C797S, 100 μM ATP) | Compound | other results
8.31 | 6.16 | 9.00 | 8.51 | 9.00 | 8.09 | 9.10 | 8.57 | – | – | CC(C)(F)c1ccc(-c2cnc(Nc3ccnc(-c4cnn(S(=O)(=O)C5CC5)c4)n3)cc2N[C@H]2CC[C@@H](CO)CC2)nc1 [Example 235, ((1s,4s)-4-((6′-((2-(1-(Cyclopropylsulfonyl)-1H-pyrazol-4-yl)pyrimidin-4-yl)amino)-5-(2-fluoropropan-2-yl)-[2,3′-bipyridin]-4′-yl)amino)cyclohexyl)methanol] | –
9.40 | 6.91 | 10.00 | 9.70 | 10.00 | 9.00 | 10.00 | 10.00 | 10.00 | 9.70 | CN1CCN(C(=O)c2ccc(-c3cnc(Nc4ccnc(-c5cnn(S(=O)(=O)C6CC6)c5)n4)cc3N[C@H]3CC[C@@H](CN(C)C)CC3)nc2)CC1 [Example 204, (6′-((2-(1-(Cyclopropylsulfonyl)-1H-pyrazol-4-yl)pyrimidin-4-yl)amino)-4′-(((1s,4s)-4-((dimethylamino)methyl)cyclohexyl)amino)-[2,3′-bipyridin]-5-yl)(4-methylpiperazin-1-yl)methanone] | –
9.70 | 7.17 | 9.52 | 10.00 | 9.70 | 9.52 | 10.00 | 9.70 | 9.30 | 9.52 | CN(C)C[C@H]1CC[C@@H](Nc2cc(Nc3ccnc(-c4cnn(S(=O)(=O)C5CC5)c4)n3)ncc2-c2ccc(C(C)(C)O)cn2)CC1 [Example 171, 2-(6′-((2-(1-(Cyclopropylsulfonyl)-1H-pyrazol-4-yl)pyrimidin-4-yl)amino)-4′-(((1s,4s)-4-((dimethylamino)methyl)cyclohexyl)amino)-[2,3′-bipyridin]-5-yl)propan-2-ol] | –
7.63 | – | 8.60 | 8.11 | 8.74 | – | 8.96 | – | – | – | CC(C)(O)c1ccc(-c2cnc(Nc3ccnc(-c4cnn(S(=O)(=O)C5CC5)c4)n3)cc2NC2CCC(F)CC2)nc1 (stereo not drawn) [Example 174, 2-(6′-((2-(1-(Cyclopropylsulfonyl)-1H-pyrazol-4-yl)pyrimidin-4-yl)amino)-4′-((4-fluorocyclohexyl)amino)-[2,3′-bipyridin]-5-yl)propan-2-ol] | –
8.39 | 6.30 | 8.85 | 8.77 | 8.92 | 8.34 | 9.40 | 9.05 | 8.70 | 8.19 | CC(O)(c1ccc(-c2cnc(Nc3ccnc(-c4cnn(S(=O)(=O)C5CC5)c4)n3)cc2NC2CCC(CO)CC2)nc1)C(F)(F)F (stereo not drawn) [Example 231, 2-(6′-((2-(1-(Cyclopropylsulfonyl)-1H-pyrazol-4-yl)pyrimidin-4-yl)amino)-4′-(((1s,4s)-4-(hydroxymethyl)cyclohexyl)amino)-[2,3′-bipyridin]-5-yl)-1,1,1-trifluoropropan-2-ol] | –
